Reference: US5314999A, “Derivatives of basic polyene macrolides and their preparation” (Laboratoires Mayoly-Spindler, priority 1989, dated 1994)
Structures can show the parent of a compound that is named as a salt. Where two headings read alike, the source gives them in different places.

Legend:
Aspergillus fumigatus = experiment: Diffusion method in agar-agar medium (Sabouraud agar-agar); assay type: cell-based; details: for IC (1 cm inhibition zone): Aspergillus fumigatus, read-out: concentration giving a growth inhibition of 1 cm around a disc in solid medium
Protocol: (§1) A.2 : Study of the antibiotic efficiency of amphotericine B derivatives in agar-agar medium against Aspergillus
(§2) The antibiotic activity was tested by the diffusion method in agar-agar medium (Sabouraud agar-agar).
(§3) The efficiency of each molecule was determined by the size of the growth-inhibiting zone around a WHATMAN 3M paper disc impregnated with the antibiotic substance of a given concentration.
(§4) A suspension of Aspergillus spores in a broth was prepared, 0.2 ml of this suspension was used to inoculate at its surface an agar-agar medium which was solidified in such a manner that a homogeneous growth layer was obtained. After spreading, the WHATMAN 3M paper discs (diameter: 1 cm) were placed on the surface of the agar-agar, and then impregnated with 0.1 ml of the antibiotic substance at different concentrations.

Aspergillus flavus = experiment: as above; assay type: cell-based; details: for IC (1 cm inhibition zone): Aspergillus flavus, read-out: concentration giving a growth inhibition of 1 cm around a disc in solid medium
Protocol: as §1, §2, §3, §4

[1] = Toxicity on nucleated cells, mice T lymph gland cells; assay type: cell-based; details: mouse, 1 hour 30, trypan blue, read-out: LD 50 (concentration leading to a mortality of 50%)
Protocol: (§5) B.2: Study of the toxicity on nucleated cells
(§6) The solutions of the amphotericine B derivatives are prepared similarly to those mentioned in paragraph B.1.
(§7) The cells are prepared by placing 20 ml of blood diluted to 1/2 with 0.9% NaCl into a tube together with 10 ml of Ficoll-hypaque, and the mixture is centrifuged at 2000 rpm for 30 minutes. The cell nuclei are recovered and washed twice with PBS buffer containing 5% of foetal calf serum.
(§8) The cells are prepared by suspending 1.14×10^6 cells/ml in RPMI 1640 containing 2.5% of foetal calf serum and by filling each well with 150 μl. 50 μl of each dilution of the derivatives are added and also one control (5% glucose solution).
(§9) The cells are then incubated in a steam cabinet at a CO2 concentration of 5% for 1 hour 30 at 37° C. or at ambient temperature.
(§10) To evaluate the toxicity of the derivatives, a cell count in the presence of trypan blue is made, and the LD 50 (concentration of the derivative leading to a mortality of 50%) is calculated with respect to the control (5% glucose solution) for each concentration of each derivative.

[2] = Toxicity on nucleated cells, human thymocytes; assay type: cell-based; details: 1 hour 30, trypan blue, read-out: LD 50 (concentration leading to a mortality of 50%)
Protocol: as §5, §6, §7, §8, §9, §10

[3] = Toxicity on nucleated cells, human bone marrow; assay type: cell-based; details: 1 hour 30, trypan blue, read-out: LD 50 (concentration leading to a mortality of 50%)
Protocol: as §5, §6, §7, §8, §9, §10

[4] = Toxicity on nucleated cells, mice thymocytes; assay type: cell-based; details: mouse, thymocytes, 1 hour 30, trypan blue, read-out: LD 50 (concentration leading to a mortality of 50%)
PBL = experiment: Toxicity on nucleated cells, human PBL; assay type: cell-based; details: 90 min
How it was run: (§11)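 LD 50 = derivative concentration giving 50% mortality by trypan blue cell count, relative to 5% glucose control. Cells: 1.14×10^6 cells/ml in RPMI 1640 + 2.5% foetal calf serum, exposed to amphotericin B derivatives 1 hour 30, 37° C or ambient, 5% CO2.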

[5] = Toxicity on nucleated cells, mice B lymph gland cells; assay type: cell-based; details: mouse, 1 hour 30, trypan blue, read-out: LD 50 (concentration leading to a mortality of 50%)
Protocol: as §5, §6, §7, §8, §9, §10

red corpuscles [6] = experiment: Toxicity on red corpuscles (lysis), mice; assay type: cell-based; details: 37° C., 1 hour 30, 90 min, 90 min, read-out: LD 50 (dose which leads to lysis in 50% of the erythrocytes)
Protocol: (§12) B.1: Study of the toxicity on red corpuscles
(§13) All the solutions of the AmB derivatives according to the invention were prepared immediately before use by diluting 4 mg of substance in 100 μl of 5% glucose solution, and then, after 15 minutes protected from light, 100 μl of sterile distilled water are added, and the mixture is made up to stock solutions of 4 mg/ml with a 5% glucose solution. For comparative study of the effects of AmB, 4 mg of FUNGIZONE are diluted with 1 ml of 5% glucose.
(§14) The cells are prepared by placing 1 ml of a peripheral blood sample into a tube together with Ficollhypaque to remove the lymphocytes, and then centrifuging the mixture at 2000 rpm for 20 minutes. The remaining red corpuscles are recovered, washed once with 0.9% NaCl and then twice with 150 Mm KCl, 0.5 Mm tris-HCl, pH 7.4.
(§15) A 1.25% suspension is then prepared with 150 mM KCl solution, 0.5 mM tris-HCl, pH 7.4, and 150 μl thereof are distributed in wells along with 50 μl of each of the dilutions of the derivatives, plus a control well (5% glucose solution).
(§16) The cells are then incubated at 37° C. in a steam cabinet for 1 hour 30.
(§17) To evaluate the cell lysis, haemoglobin is essayed by removing 100 μl of the supernatant in each well and diluting the sample with 1 ml of distilled water.
(§18) The haemoglobin concentration is calculated by measuring the optical density at 540 nm and taking into account the absorption of the derivatives of amphotericine B.
(§19) LD 50 is the dose which leads to lysis in 50% of the erythrocytes (a control of 100% lysis is obtained with distilled water, and reference lysis of 0% is obtained with the 5% glucose solution).

[7] = Toxicity on nucleated cells, DAUDI human lymphoma B; assay type: cell-based; details: human, daudi lymphoma b cells, 1 hour 30, trypan blue, read-out: LD 50 (concentration leading to a mortality of 50%)
[8] = Toxicity on red corpuscles (lysis), human; assay type: cell-based; details: human, red corpuscles, 37° C., 1 hour 30, read-out: LD 50 (dose which leads to lysis in 50% of the erythrocytes)
Protocol: as §12, §13, §14, §15, §16, §17, §18, §19

Saccharomyces cerevisiae = experiment: Growth inhibition in liquid medium (Sabouraud broth); assay type: cell-based; details: Saccharomyces cerevisiae, 18 h, read-out: IC 50 (growth-inhibiting concentration of 50%)
Protocol: (§20) A.1 : Study of the antibiotic efficiency of AmB derivatives in liquid medium against different yeasts
(§21) The antibiotic efficiency was tested by the growth inhibition method in liquid medium (Sabouraud broth) in the presence of different concentrations of the derivatives studied.
(§22) A yeast suspension was cultivated in a broth in such a manner that about 1×10^2 cell/ml were obtained.
(§23) The tubes containing the different concentrations of antifungal substance were inoculated with the same amount of yeast cells, and were then incubated at 28° C. for 18 hours with stirring. For each concentration of antifungal substance, two identical tubes were prepared.
(§24) The inhibition of fungal growth corresponding to the different concentrations was evaluated for each molecule by spectrophotometry at 620 nm and expressed in percent with respect to a reference solution without antifungal substance.

Cryptoccocus neoformans = experiment: as above; assay type: cell-based; details: read-out: IC 50 (growth-inhibiting concentration of 50%)
Protocol: as §20, §21, §22, §23, §24

Candida albicans = experiment: as above; assay type: cell-based; details: read-out: IC 50 (growth-inhibiting concentration of 50%)
Protocol: as §20, §21, §22, §23, §24

Pytirosporum orbiculare = experiment: as above; assay type: cell-based; details: read-out: IC 50 (growth-inhibiting concentration of 50%)
Protocol: as §20, §21, §22, §23, §24

X 63 (mice lymphoma B) = experiment: Toxicity on nucleated cells, X 63 mice lymphoma B; assay type: cell-based; details: 1 hour 30, trypan blue, 90 min, read-out: LD 50 (concentration leading to a mortality of 50%)
[9] = Toxicity on nucleated cells, human PBL; assay type: cell-based; details: human, pbl, human PBLs; AmB 12 derivative, comparison of different catalysts (Table 4); read-out: LD 50
How it was run: as §11

[10] = Toxicity on red corpuscles (lysis), mice; assay type: cell-based; details: mouse, red blood cells, 37° C., 1 hour 30, read-out: LD 50 (dose which leads to lysis in 50% of the erythrocytes)
Protocol: as §12, §13, §14, §15, §16, §17, §18, §19

DAUDI (human lymphoma B) = experiment: Toxicity on nucleated cells, DAUDI human lymphoma B; assay type: cell-based; details: 1 hour 30, trypan blue, 90 min, read-out: LD 50 (concentration leading to a mortality of 50%)
red corpuscles [11] = experiment: Toxicity on red corpuscles (lysis), human; assay type: cell-based; details: 37° C., 1 hour 30, 90 min, 90 min, read-out: LD 50 (dose which leads to lysis in 50% of the erythrocytes)
Protocol: as §12, §13, §14, §15, §16, §17, §18, §19

Candida albicans B 2630 = experiment: Growth inhibition in liquid medium (Sabouraud broth); assay type: cell-based; details: read-out: IC 50 (growth-inhibiting concentration of 50%)
Protocol: as §20, §21, §22, §23, §24

[12] = Toxicity on nucleated cells, X 63 mice lymphoma B; assay type: cell-based; details: mouse, x 63 lymphoma cells, 1 hour 30, trypan blue, read-out: LD 50 (concentration leading to a mortality of 50%)
[13] = background; cited from earlier work
[14] = Solubility of the AmB derivatives; assay type: physicochemical; details: 5% glucose solution, ambient temperature
Protocol: C.2. Solubility of the AmB derivatives according to the present invention
AmB or the derivatives obtained are dissolved at ambient temperature in a 5% glucose solution up to saturation.

[15] = Sabouraud agar-agar, disc diameter 1 cm, 0.1 ml
[16] = human PBL, 1 hour 30, trypan blue, read-out: LD 50 (concentration leading to a mortality of 50%)
[17] = Sabouraud broth, 28° C., 18 hours

## CC1OC[C@@H](O)[C@H]([C@H](O)C(=O)CN[C@@H]2[C@H](O)[C@H](O[C@H]3/C=C/C=C/C=C/C=C/C=C/C=C/C=C/[C@H](C)[C@@H](O)[C@@H](C)[C@H](C)OC(=O)C[C@H](O)C[C@H](O)CC[C@@H](O)[C@H](O)C[C@H](O)C[C@]4(O)C[C@H](O)[C@@H](C(=O)O)[C@H](C3)O4)O[C@H](C)[C@H]2O)O1 (stereo partly drawn) [AmB 22 F, 1-deoxy-1-amino-4,6-O-ethylidene-D-fructosyl-AmB]
Aspergillus fumigatus; [15]
  concentration giving a growth inhibition of 1 cm around a disc in solid medium: 5 × 10^-4 molarity
Aspergillus flavus; [15]
  IC (1 cm inhibition zone): 150 µM
[1]
  CC50 at 1.5 h: 20 µM
[2]
  CC50 at 1.5 h: > 300 µM
[3]
  CC50 at 1.5 h: 1000 µM
[4]
  CC50 at 1.5 h: 3.5 µM
PBL; [16]
  CC50: > 1000 µM
[5]
  CC50 at 1.5 h: 20 µM
Red corpuscles [6]
  HC50: 90 µM
[7]
  CC50 at 1.5 h: > 1000 µM
[8]
  HC50 at 1.5 h: 100 µM
Saccharomyces cerevisiae; [17]
  IC50: 1.6 µM
Cryptoccocus neoformans; [17]
  IC50: 0.25 µM
Candida albicans; [17]
  IC50: 0.56 µM
Pytirosporum orbiculare; [17]
  IC50: 0.18 µM
X 63 (mice lymphoma B)
  CC50: > 1000 µM

## C[C@@H]1[C@H](O)[C@@H](C)/C=C/C=C/C=C/C=C/C=C/C=C/C=C/[C@H](O[C@@H]2O[C@H](C)[C@@H](O)[C@H](NC3O[C@H](C(N)=O)[C@@H](O)[C@H](O)[C@H]3O)[C@@H]2O)C[C@@H]2O[C@](O)(C[C@@H](O)C[C@@H](O)[C@H](O)CC[C@@H](O)C[C@@H](O)CC(=O)O[C@H]1C)C[C@H](O)[C@H]2C(=O)O (some centres unmarked) [Uncatalyzed NMG salt, reference compound]
[9]
  CC50 at 1.5 h: 80 µM

## C[C@@H]1[C@H](O)[C@@H](C)/C=C/C=C/C=C/C=C/C=C/C=C/C=C/[C@H](O[C@@H]2O[C@H](C)[C@@H](O)[C@H](NCC3(O)O[C@H](C(N)=O)[C@@H](O)[C@@H]3O)[C@@H]2O)C[C@@H]2O[C@](O)(C[C@@H](O)C[C@@H](O)[C@H](O)CC[C@@H](O)C[C@@H](O)CC(=O)O[C@H]1C)C[C@H](O)[C@H]2C(=O)O (stereo partly drawn) [AmB 12 F, 1-amino-1-deoxy-D-arabinoglucuronamidyl-AmB]
Aspergillus fumigatus; [15]
  IC (1 cm inhibition zone): 80 µM
Aspergillus flavus; [15]
  concentration giving a growth inhibition of 1 cm around a disc in solid medium: 3 × 10^-4 molarity
[1]
  CC50 at 1.5 h: 10 µM
[2]
  CC50 at 1.5 h: > 300 µM
[3]
  CC50 at 1.5 h: > 1000 µM
[4]
  CC50 at 1.5 h: 4 µM
PBL; [16]
  CC50: > 1000 µM
PBL; human PBLs, AmB 12 derivative, comparison of different catalysts (Table 4), listed as Oxalic acid NMG salt, read-out: LD 50 (the source's name)
  CC50: > 1000 µM
[5]
  CC50 at 1.5 h: 10 µM
[10]
  HC50 at 1.5 h: 20 µM
DAUDI (human lymphoma B)
  CC50: > 1000 µM
Red corpuscles [11]
  HC50: 100 µM
Candida albicans B 2630; B2630, Sabouraud broth, 28° C., 18 hours
  IC50: 0.24 µM
Saccharomyces cerevisiae; [17]
  IC50: 1.1 µM
Cryptoccocus neoformans; 18 h, Sabouraud broth, 28° C., 18 hours
  IC50: 0.065 µM
Candida albicans; Candida albicans, 18 h, Sabouraud broth, 28° C., 18 hours
  IC50: 0.09 µM
Pytirosporum orbiculare; [17]
  IC50: 0.096 µM
[12]
  CC50 at 1.5 h: > 1000 µM

## C[C@@H]1[C@H](O)[C@@H](C)/C=C/C=C/C=C/C=C/C=C/C=C/C=C/[C@H](O[C@@H]2O[C@H](C)[C@@H](O)[C@H](N)[C@@H]2O)C[C@@H]2O[C@](O)(C[C@@H](O)C[C@@H](O)[C@H](O)CC[C@@H](O)C[C@@H](O)CC(=O)O[C@H]1C)C[C@H](O)[C@H]2C(=O)O [AmB, amphotericine B, reference compound]
Aspergillus fumigatus
  IC (1 cm inhibition zone): 50 µM
Aspergillus flavus
  IC (1 cm inhibition zone): 50 µM
[13]
  solubility in water (in words): sparingly soluble in water
[14]
  solubility (in words): insoluble
Candida albicans B 2630; B2630, 18 h
  IC50: 0.35 µM
Saccharomyces cerevisiae
  IC50: 0.54 µM
Cryptoccocus neoformans; 18 h
  IC50: 0.08 µM
Candida albicans; Candida albicans, 18 h
  IC50: 0.08 µM
Pytirosporum orbiculare; 18 h
  IC50: < 0.01 µM
